Reference: ChEMBL document CHEMBL1128636, “()-1-Azabicyclo[2.2.1]heptan-3-one, O-(3-methyl-5-aryl-2-penten-4-ynyl) oximes: Potent muscarinic agonists” (Bioorg Med Chem Lett, 1995)
Calls of active or inactive are those of the source. The calls are words filed in the database; no cut-off is given here.

Tests used:
[1] = molecular target: Muscarinic acetylcholine receptor
Description: Binding affinity against muscarinic receptor using radioligand [3H]quinuclidinyl benzilate (QNB) binding assay in membrane preparations of rat neocortex.

[2] = molecular target: T1, Muscarinic acetylcholine receptor M1 (Homo sapiens) (UniProt P11229); details: NIH3T3
T1 sequence (whole entry): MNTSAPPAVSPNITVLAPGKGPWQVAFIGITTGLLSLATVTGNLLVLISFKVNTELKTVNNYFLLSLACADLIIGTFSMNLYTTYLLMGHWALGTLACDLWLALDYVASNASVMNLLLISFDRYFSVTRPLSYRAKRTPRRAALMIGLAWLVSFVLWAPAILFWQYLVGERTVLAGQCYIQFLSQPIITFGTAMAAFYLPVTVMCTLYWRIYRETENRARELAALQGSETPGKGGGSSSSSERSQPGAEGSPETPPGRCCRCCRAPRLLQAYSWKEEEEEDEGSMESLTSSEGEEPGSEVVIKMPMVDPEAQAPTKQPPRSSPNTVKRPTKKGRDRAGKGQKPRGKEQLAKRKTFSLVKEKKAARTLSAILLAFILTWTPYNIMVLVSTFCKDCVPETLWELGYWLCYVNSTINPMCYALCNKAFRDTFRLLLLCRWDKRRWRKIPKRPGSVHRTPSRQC
Description: Agonistic efficacy in human m1 muscarinic receptor expressed with the marker gene beta-galactosidase in NIH 3T3 cells.

[3] = molecular target: Muscarinic acetylcholine receptor; remark: listed apart in the source
Description: Binding affinity against muscarinic receptor using radioligand [3H]cis-methyldioxolane (CMD) binding assay in membrane preparations of rat neocortex.

[4] = molecular target: T2, Muscarinic acetylcholine receptor M2 (Homo sapiens) (UniProt P08172); details: NIH3T3
T2 sequence (whole entry): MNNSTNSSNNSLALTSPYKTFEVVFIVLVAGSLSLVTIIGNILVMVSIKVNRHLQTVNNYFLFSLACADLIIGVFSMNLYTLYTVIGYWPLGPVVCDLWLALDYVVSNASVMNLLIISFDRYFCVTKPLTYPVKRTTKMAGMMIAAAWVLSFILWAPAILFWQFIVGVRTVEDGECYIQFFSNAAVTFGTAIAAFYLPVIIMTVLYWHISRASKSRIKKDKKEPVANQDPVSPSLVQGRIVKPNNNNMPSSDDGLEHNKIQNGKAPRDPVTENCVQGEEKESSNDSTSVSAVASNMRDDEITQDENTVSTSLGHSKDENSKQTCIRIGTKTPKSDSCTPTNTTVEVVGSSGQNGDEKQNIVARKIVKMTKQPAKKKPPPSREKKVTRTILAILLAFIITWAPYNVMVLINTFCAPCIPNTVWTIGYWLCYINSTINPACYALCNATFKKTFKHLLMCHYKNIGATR
Description: Agonistic efficacy in human m2 muscarinic receptor expressed with the marker gene beta-galactosidase in NIH 3T3 cells.

[5] = molecular target: Muscarinic acetylcholine receptor; type: tissue-based, Neocortex
[6] = molecular target: T3, Muscarinic acetylcholine receptor (Rattus norvegicus) (UniProt P08482+P08483+P08485+P08911+P10980); type: tissue-based; details: Neocortex; 100 nM
[7] = molecular target: T3, Muscarinic acetylcholine receptor (Rattus norvegicus); type: tissue-based; details: Neocortex; 1 uM
[8] = molecular target: T1, Muscarinic acetylcholine receptor M1 (Homo sapiens); assay: Agonistic efficacy in human m1 muscarinic receptor which was expressed with the marker gene beta-galactosidase in NIH 3T3 cells; No data; type: functional, cell-based; details: NIH3T3

SMILES | IC50 [1] [nM] | ED50 [2] [nM] | IC50 [3] [nM] | ED50 [4] [nM] | other results
C/C(C#Cc1cccs1)=C/CO/N=C1\CN2CCC1C2 (configuration not stated) | 21 | 6.2 | 0.02 | 2.3 | 
COc1ccc(C#C/C(C)=C\CO/N=C2\CN3CCC2C3)cc1 (configuration not stated) |  | 8.5 | 0.1 | 8.9 | IC50 [5]: 60 nM
COc1cccc(C#C/C(C)=C/CO/N=C2\CN3CCC2C3)c1 (configuration not stated) |  | 93.2 |  |  | 
C/C(C#Cc1ccccc1)=C/CO/N=C1/CN2CCC1C2 (configuration not stated) | 181 | 120 | 1.07 | 4.2 | 
C/C(C#Cc1cccs1)=C\CO/N=C1/CN2CCC1C2 (configuration not stated) | 5593 |  | 80.47 |  | 
C/C(C#Cc1ccc(Cl)c(Cl)c1)=C/CO/N=C1\CN2CCC1C2 (configuration not stated) |  |  |  |  | inhibition [6]: 46%; inhibition [7]: 77%
C/C(C#Cc1ccc(C)cc1)=C/CO/N=C1/CN2CCC1C2 (configuration not stated) | 383 | 83.3 | 5.02 | 4.4 | 
COc1ccc(C#C/C(C)=C/CO/N=C2\CN3CCC2C3)cc1OC (configuration not stated) | 2380 | 74 | 5.37 | 1.8 | 
COc1ccc(C#C/C(C)=C/CO/N=C2\CN3CCC2C3)cc1 (configuration not stated) | 1413 |  | 12 |  | 
COc1cccc(C#C/C(C)=C\CO/N=C2\CN3CCC2C3)c1 (configuration not stated) |  | 51.1 |  |  | 
C/C(C#Cc1ccccc1)=C/CO/N=C1\CN2CCC1C2 (configuration not stated) | 44 |  | 0.15 |  | 
C/C(C#Cc1ccccc1)=C\CO/N=C1/CN2CCC1C2 (configuration not stated) |  |  |  |  | inhibition [6]: 31%; inhibition [7]: 18%
C/C(C#Cc1ccc(Cl)cc1)=C/CO/N=C1\CN2CCC1C2 (configuration not stated) |  |  |  |  | ED50 [8]: inactive
C/C(C#Cc1ccc(Cl)cc1)=C\CO/N=C1/CN2CCC1C2 (configuration not stated) |  |  |  |  | inhibition [6]: 57%; inhibition [7]: 52%
C/C(C#Cc1cccs1)=C\CO/N=C1\CN2CCC1C2 (configuration not stated) | 968 | 0.4 | 4.96 | 24 | 
C/C(C#Cc1ccc(F)cc1)=C/CO/N=C1\CN2CCC1C2 (configuration not stated) |  | 20.9 |  |  | 
C/C(C#Cc1ccc(Cl)c(Cl)c1)=C/CO/N=C1/CN2CCC1C2 (configuration not stated) |  |  |  |  | inhibition [6]: 14%; inhibition [7]: 51%
C#C/C(C)=C\CO/N=C1\CN2CCC1C2 (configuration not stated) |  | 12 |  | 23.7 | 
C/C(C#Cc1ccc(Cl)c(Cl)c1)=C\CO/N=C1/CN2CCC1C2 (configuration not stated) |  |  |  |  | inhibition [6]: 49%; inhibition [7]: 39%
C/C(C#Cc1ccc(C)cc1)=C/CO/N=C1\CN2CCC1C2 (configuration not stated) | 64 | 10.5 | 0.57 | 10.7 | 

SMILES | IC50 [1] [nM] | ED50 [2] [nM] | IC50 [3] [nM] | ED50 [4] [nM] | other results
C/C(C#Cc1ccc(C)cc1)=C\CO/N=C1\CN2CCC1C2 (configuration not stated) | 681 |  | 22.16 |  | 
COc1cccc(C#C/C(C)=C/CO/N=C2/CN3CCC2C3)c1 (configuration not stated) |  | 264 |  |  | 
C/C(C#Cc1ccc(F)cc1)=C\CO/N=C1\CN2CCC1C2 (configuration not stated) |  | 31.5 |  |  | 
C/C(C#Cc1ccc(F)cc1)=C/CO/N=C1/CN2CCC1C2 (configuration not stated) |  | 48 |  |  | 
COc1ccc(C#C/C(C)=C\CO/N=C2/CN3CCC2C3)cc1 (configuration not stated) | 1992 | 8.6 | 17 | 10.7 | 
C/C(C#Cc1ccc(Cl)cc1)=C/CO/N=C1/CN2CCC1C2 (configuration not stated) | 81 | 29.1 | 0.45 | 2.8 | 
C/C(C#Cc1cccs1)=C/CO/N=C1/CN2CCC1C2 (configuration not stated) | 608 | 11.6 | 4.1 | 2.5 | 
C/C(C#Cc1ccc(C)cc1)=C\CO/N=C1/CN2CCC1C2 (configuration not stated) |  |  |  |  | inhibition [6]: 29%; inhibition [7]: 31%
COc1ccc(C#C/C(C)=C\CO/N=C2/CN3CCC2C3)cc1OC (configuration not stated) | 8547 | 162 | 4.6 | 0.9 | 
COc1ccc(C#C/C(C)=C/CO/N=C2/CN3CCC2C3)cc1 (configuration not stated) |  |  |  |  | inhibition [6]: 33%; inhibition [7]: 19%
C/C(C#Cc1ccc(Cl)c(Cl)c1)=C\CO/N=C1\CN2CCC1C2 (configuration not stated) | 171 | 398 | 0.8 | 940 | 
COc1ccc(C#C/C(C)=C\CO/N=C2\CN3CCC2C3)cc1OC (configuration not stated) | 1245 | 55 | 1.38 |  | 
C/C(C#Cc1ccc(F)cc1)=C\CO/N=C1/CN2CCC1C2 (configuration not stated) |  | 156 |  |  | 
C#C/C(C)=C/CO/N=C1/CN2CCC1C2 (configuration not stated) | 19308 |  | 21 |  | 
C#C/C(C)=C\CO/N=C1/CN2CCC1C2 (configuration not stated) | 4234 | 30 | 12 | 45 | 
C/C(C#Cc1ccc(Cl)cc1)=C\CO/N=C1\CN2CCC1C2 (configuration not stated) | 439 |  | 27.12 |  | 
C#C/C(C)=C/CO/N=C1\CN2CCC1C2 (configuration not stated) |  | 85 | 4 | 11 | 
C[N+](C)(C)CCOC(N)=O |  |  |  | 22.8 | 
C/C(C#Cc1ccccc1)=C\CO/N=C1\CN2CCC1C2 (configuration not stated) | 1587 |  | 12.4 |  | 
